Patent US20110059043A1, “CHEMICAL COMPOUNDS” (priority 2009, published 2011)

Experiments:
[1] = target: T1, Recombinant HCV polymerase (BK strain) (Hepatitis C virus genotype 1b, UniProt P26663); experiment: HCV polymerase enzyme assay (radiometric [33P]-UTP incorporation); format: biochemical, HCV 1b
T1 construct: Recombinant HCV polymerase (BK strain) was expressed and purified from E. coli with a 21 amino acid C-terminal deletion; His6; made in house; host or cells: E. coli
Description: Compounds were tested for inhibition of HCV polymerase using a radiometric [^33P]-UTP incorporation assay and a biotinylated U13:PolyA primer:template RNA substrate.
Recombinant HCV polymerase (BK strain) was expressed and purified from E. coli with a 21 amino acid C-terminal deletion and a His6-tag. The general assay buffer consisted of 20 mM Tris (pH 7.5), 25 mM KCl, 5 mM MgCl2, 3 mM DTT, 0.5 mg/ml BSA, 0.01% Tween20. The standard reaction, in 96 well plates, contained 10 μl of diluted compound, 50 μl of substrate and 40 μl of enzyme. Compounds, supplied as 10 mM stocks in DMSO, were diluted initially in neat DMSO, and subsequently buffer was added to give a DMSO concentration of 30%; 10 μl of this was added to the assay plate to give a final concentration in the 100 μl assay of 3% DMSO. The biotinylated U13:PolyA RNA substrate was pre-annealed with 40 μM 5′-biotinylated U13 (Dharmacon) and 213 μg/ml PolyA (Amersham Biosciences) in water incubated at 70° C. for 5 minutes before being cooled on ice. Substrate (50 μl) was added in buffer to give a final concentration in the 100 μl assay of 125 nM biotinylated U13:0.63 μg/ml PolyA and 200 nM UTP with 0.4 μCi [^33P]-UTP per well (Perkin Elmer). The reaction was initiated by the addition of 40 μl of enzyme in buffer to give 100 nM final concentration. The reaction was incubated at 25° C. for 100 minutes and then stopped by addition of 100 μl of 100 mM EDTA. The samples were then transferred to 96 well Streptavidin-coated FlashPlates (Perkin Elmer) and incubated at room temperature for ˜1 hour to allow binding to occur. The plates were then washed three times with phosphate-buffered saline containing 0.05% Tween20 in an automated plate washer to remove unincorporated [^33P]-UTP, and then counted in a
Each plate included a set of positive controls (no compound, maximum signal) and negative controls (no enzyme, minimum signal) and in each run at least one reference is compound was included to validate the assay. The IC50, concentration required to inhibit the enzyme activity by 50%, was calculated using an 8-point IC50 curve and fitted using the program XLfit (IDBS).

[2] = tested on: HCV replicon cells Huh 9B; experiment: HCV replicon assay (luciferase); format: cell-based; details: Hepatitis C virus, reduction of replicon level by 50% vs untreated cell control, 72 h
Description: (§1) HCV replicon cells Huh 9B (ReBlikon), containing the firefly luciferase—ubiquitin—neomycin phosphotransferase fusion protein and EMCV-IRES driven HCV polyprotein with cell culture adaptive mutations.
(§2) Cells were cultured at 37° C. in a 5% CO2 environment and split twice a week on seeding at 2×10^6 cells/flask on day 1 and 1×10^6 3 days later. G418 at 0.5 mg/ml was added to the culture medium but not the assay medium. The culture medium consisted of DMEM with […] glucose and glutamax (Gibco 61965-026) supplemented with 1×non-essential amino acids (Invitrogen 11140-035), penicillin (100 IU/ml)/streptomycin (100 μg/ml) (Invitrogen 15140-122), FCS (10%, 50 ml) and […] (Invitrogen 10131-027) & 10% Australian foetal calf serum (Invitrogen 10099-141).
(§3) A flask of cells was trypsinised and a cell count carried out. Cells were diluted to 100,000 cells/ml and 100 μl of this used to seed one opaque white 96-well plate (for the replicon assay) and one flat-bottomed clear plate (for the tox assay) for every five compounds to be tested for IC50. Wells G12 and H12 were left empty in the clear plate as the blank. Plates were then incubated at 37° C. in a 5% CO2 environment for 24 h.
(§4) On the following day compound dilutions are made up in medium at twice their desired final concentration in a clear round bottomed plate. All dilutions have a final DMSO concentration of 1%.
(§5) Once the dilution plate had been made up, controls and compounds were transferred to the assay plates (containing the cells) at 100 μl/well in duplicate wells. Exception: no compound was added to wells A1 and A2 of either plate and 100 μl of 1% DMSO was added to these instead. Plates were then incubated at 37° C. with 5% CO2 for 72 h.
At the end of the incubation time, the cells in the white plate were harvested by washing in PBS (100 μL per well) and gently tapping dry before addition of […] of lysis buffer (25 mM tris-phosphate, 8 mM MgCl2, 1 mM DTT, 1% Triton X-100, 15% glycerol. pH to 7.8 using KH2PO4 prior to triton and glycerol addition. Substrate was prepared: 23.5 mM beetle luciferin (Promega E1603), 26 mM ATP (Sigma O-2060) in […] Tris buffer pH 7.8 aliquoted and stored at −80° C. was thawed and diluted 1:50 in luciferase assay buffer (20 mM Tricine (Sigma T-0377), 1.07 mM magnesium carbonate hydroxide (Sigma M-5671), 0.1 mM EDTA (Sigma E-5134), 2.67 mM MgSO4(BDH 101514Y), 33.3 mM dithiothreitol (Sigma 150460) pH 7.8).
The M injector of the microplate luminometer (Lmax, Molecular Devices) was primed with 5×300 μl injections of the diluted substrate. After 5-60 min incubation in lysis buffer at room temperature, a plate was inserted into the luminometer and 100 μl luciferase assay reagent was added by the injector on the luminometer. The signal was measured using a 1 second delay followed by a 4 second measurement programme. The IC50, the concentration of the drug required for reducing the replicon level by 50% in relation to the untreated cell control value, can be calculated from the plot of the percentage reduction of the luciferase activity vs. drug concentration.

[3] = tested on: HCV replicon cells Huh 9B; format: cell-based; details: concentration reducing total cell area by 50% relative to DMSO controls; 72 h
Description: as §1, §2, §3, §4, §5
The clear plate was stained with 100 μl 0.5% methylene blue in 50% ethanol at room temperature for lh, followed by solvation of the absorbed methylene blue in 100 μl per well of 1% lauroylsarcosine. Absorbance of the plate was measured on a microplate spectrophotometer (Molecular Devices) and the absorbance for each concentration of compound expressed as a proportion of the relative DMSO control. The TD50, the concentration of drug required to reduce the total cell area by 50% relative to the DMSO controls, can be calculated by plotting the absorbance at 620 nm minus background against drug concentration.

T1 sequence (P26663 2420-2989): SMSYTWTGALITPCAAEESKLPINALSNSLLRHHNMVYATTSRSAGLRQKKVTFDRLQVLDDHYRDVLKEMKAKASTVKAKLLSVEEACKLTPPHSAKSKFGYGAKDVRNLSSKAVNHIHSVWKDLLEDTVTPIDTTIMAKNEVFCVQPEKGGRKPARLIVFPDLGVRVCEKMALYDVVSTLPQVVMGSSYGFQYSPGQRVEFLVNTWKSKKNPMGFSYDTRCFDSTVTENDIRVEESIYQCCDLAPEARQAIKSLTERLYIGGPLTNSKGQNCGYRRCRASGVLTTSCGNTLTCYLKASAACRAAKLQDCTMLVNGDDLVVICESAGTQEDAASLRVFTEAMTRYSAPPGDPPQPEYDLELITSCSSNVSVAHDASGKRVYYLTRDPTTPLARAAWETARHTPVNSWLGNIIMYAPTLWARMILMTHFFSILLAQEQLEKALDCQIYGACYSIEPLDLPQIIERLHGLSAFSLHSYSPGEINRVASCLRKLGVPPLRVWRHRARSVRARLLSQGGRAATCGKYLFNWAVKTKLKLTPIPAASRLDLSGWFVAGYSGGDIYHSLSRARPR

In the case of `COCCOc1ncc(F)cc1C(=O)N[C@@H]1N=C(c2c(Cl)cc(Cl)cc2Cl)c2ccccc2NC1=O` [Example 64, (R)-5-Fluoro-2-(2-methoxyethoxy)-N-(2-oxo-5-(2,4,6-trichlorophenyl)-2,3-dihydro-1H-benzo[e][1,4]diazepin-3-yl)nicotinamide], the IC50 [1] is reported as 2070 nM, the IC50 [2] is reported as 241 nM and the “Replicon Assay Value TD50” value [3] is reported as 23.452 µM.

For `COCCOc1ccc(OC(F)(F)F)cc1C(=O)NC1N=C(c2c(Cl)cc(Cl)cc2Cl)c2ccccc2NC1=O` (stereo not drawn) [Example 19, 2-(2-Methoxyethoxy)-N-(2-oxo-5-(2,4,6-trichlorophenyl)-2,3-dihydro-1H-benzo[e][1,4]diazepin-3-yl)-5-(trifluoromethoxy)benzamide], the IC50 [1] was 2150 nM, the IC50 [2] was 645 nM and the “Replicon Assay Value TD50” value [3] was over 25 µM.

For `CN(CCOCC1CC1)c1ncc(F)cc1C(=O)NC1N=C(c2c(Cl)cc(Cl)cc2Cl)c2ccccc2NC1=O` (stereo not drawn) [Example 46, 2-((2-(Cyclopropylmethoxy)ethyl)(methyl)amino)-5-fluoro-N-(2-oxo-5-(2,4,6-trichlorophenyl)-2,3-dihydro-1H-benzo[e][1,4]diazepin-3-yl)nicotinamide], the IC50 [1] was 168 nM, the IC50 [2] was 151 nM and the “Replicon Assay Value TD50” value [3] was 15.961 µM.

With `CCCCOCCOc1ccc(Cl)cc1C(=O)NC1N=C(c2c(Cl)cc(Cl)cc2Cl)c2ccccc2NC1=O` (stereo not drawn) [Example 10, 2-(2-Butoxyethoxy)-5-chloro-N-(2-oxo-5-(2,4,6-trichlorophenyl)-2,3-dihydro-1H-benzo[e][1,4]diazepin-3-yl)benzamide] the IC50 [1] was 757 nM, the IC50 [2] was 338 nM and the “Replicon Assay Value TD50” value [3] was over 25 µM.

With `CC(=O)NCCCOc1ccc(Cl)cc1C(=O)NC1N=C(c2c(Cl)cc(Cl)cc2Cl)c2ccccc2NC1=O` (stereo not drawn) [Example 25, 2-(3-Acetamidopropoxy)-5-chloro-N-(2-oxo-5-(2,4,6-trichlorophenyl)-2,3-dihydro-1H-benzo[e][1,4]diazepin-3-yl)benzamide] the IC50 [1] was 459 nM, the IC50 [2] was 575 nM and the “Replicon Assay Value TD50” value [3] was 12.774 µM.

`COCCOc1ccc(Cl)cc1C(=O)NC1N=C(c2c(Cl)cc(Cl)cc2Cl)c2ccccc2NC1=O` (stereo not drawn) [Example 14, 5-Chloro-2-(2-methoxyethoxy)-N-(2-oxo-5-(2,4,6-trichlorophenyl)-2,3-dihydro-1H-benzo[e][1,4]diazepin-3-yl)benzamide] was tested, and the IC50 [1] was 154 nM, the IC50 [2] was 83.3 nM and the “Replicon Assay Value TD50” value [3] was 19.834 µM.

In the case of `CC(C)COCCOc1ccc(Cl)cc1C(=O)NC1N=C(c2c(Cl)cc(Cl)cc2Cl)c2ccccc2NC1=O` (stereo not drawn) [Example 6, 5-Chloro-2-(2-isobutoxyethoxy)-N-(2-oxo-5-(2,4,6-trichlorophenyl)-2,3-dihydro-1H-benzo[e][1,4]diazepin-3-yl)benzamide], the IC50 [1] is reported as 715 nM, the IC50 [2] is reported as 849 nM and the “Replicon Assay Value TD50” value [3] is reported as 10.604 µM.

With `COCCOc1ccc(F)cc1C(=O)NC1N=C(c2c(Cl)cc(Cl)cc2CN2CCOCC2)c2ccccc2NC1=O` (stereo not drawn) [Example 50, N-(5-(2,4-Dichloro-6-(morpholinomethyl)phenyl)-2-oxo-2,3-dihydro-1H-benzo[e][1,4]diazepin-3-yl)-5-fluoro-2-(2-methoxyethoxy)benzamide] the IC50 [1] was 666 nM, the IC50 [2] was 208 nM and the “Replicon Assay Value TD50” value [3] was 11.74 µM.

With `CCCCCOCCOc1ccc(Cl)cc1C(=O)NC1N=C(c2c(Cl)cc(Cl)cc2Cl)c2ccccc2NC1=O` (stereo not drawn) [Example 7, 5-Chloro-N-(2-oxo-5-(2,4,6-trichlorophenyl)-2,3-dihydro-1H-benzo[e][1,4]diazepin-3-yl)-2-(2-(pentyloxy)ethoxy)benzamide] the IC50 [1] was 662 nM, the IC50 [2] was 1450 nM and the “Replicon Assay Value TD50” value [3] was 11.806 µM.

`COCCOCCOc1ccc(Cl)cc1C(=O)NC1N=C(c2c(Cl)cc(Cl)cc2Cl)c2ccccc2NC1=O` (stereo not drawn) [Example 5, 5-Chloro-2-(2-(2-methoxyethoxy)ethoxy)-N-(2-oxo-5-(2,4,6-trichlorophenyl)-2,3-dihydro-1H-benzo[e][1,4]diazepin-3-yl)benzamide] was tested, and the IC50 [1] was 209 nM, the IC50 [2] was 490 nM and the “Replicon Assay Value TD50” value [3] was 15.913 µM.

With `CS(=O)(=O)NCCOc1ccc(Cl)cc1C(=O)NC1N=C(c2c(Cl)cc(Cl)cc2Cl)c2ccccc2NC1=O` (stereo not drawn) [Example 23, 5-Chloro-2-(2-(methylsulfonamido)ethoxy)-N-(2-oxo-5-(2,4,6-trichlorophenyl)-2,3-dihydro-1H-benzo[e][1,4]diazepin-3-yl)benzamide] the IC50 [1] was 952 nM, the IC50 [2] was 2910 nM and the “Replicon Assay Value TD50” value [3] was 12.744 µM.

`CC(C)OCCOc1ncc(F)cc1C(=O)NC1N=C(c2c(Cl)cc(Cl)cc2Cl)c2ccccc2NC1=O` (stereo not drawn) [Example 36, 5-Fluoro-2-(2-isopropoxyethoxy)-N-(2-oxo-5-(2,4,6-trichlorophenyl)-2,3-dihydro-1H-benzo[e][1,4]diazepin-3-yl)nicotinamide] was tested, and the IC50 [1] was 244 nM, the IC50 [2] was 308 nM and the “Replicon Assay Value TD50” value [3] was 13.55 µM.

With `COCCOc1ncc(Cl)cc1C(=O)NC1N=C(c2c(Cl)cc(Cl)cc2Cl)c2ccccc2NC1=O` (stereo not drawn) [Example 32, 5-Chloro-2-(2-methoxyethoxy)-N-(2-oxo-5-(2,4,6-trichlorophenyl)-2,3-dihydro-1H-benzo[e][1,4]diazepin-3-yl)nicotinamide] the IC50 [1] was 178 nM, the IC50 [2] was 136 nM and the “Replicon Assay Value TD50” value [3] was over 25 µM.

With `CCOCCOc1ccc(Cl)cc1C(=O)NC1N=C(c2c(Cl)cc(Cl)cc2Cl)c2ccccc2NC1=O` (stereo not drawn) [Example 3, 5-Chloro-2-(2-ethoxyethoxy)-N-(2-oxo-5-(2,4,6-trichlorophenyl)-2,3-dihydro-1H-benzo[e][1,4]diazepin-3-yl)benzamide] the IC50 [1] was 111 nM, the IC50 [2] was 82.9 nM and the “Replicon Assay Value TD50” value [3] was 16.177 µM.
